{"source": "patent US4229573A", "about": "“7α-Methoxycephalosporin derivatives” (Asahi Kasei Kogyo Kabushiki Kaisha, priority 1977, dated 1980)", "test_in_all_cases": "Minimum inhibitory concentration (MIC) against bacteria", "format_in_all_cases": "cell-based", "key": {"[1]": {"tested_on": "Citrobacter freundii GN 346", "settings": "GN346", "text": "(§1) In an antimicrobial spectrum, a minimum inhibitory concentration (MIC) against a bacterium is expressed in terms of μg/ml."}, "[2]": {"tested_on": "Enterobacter cloacae GN 336", "settings": "GN336", "text": "as §1"}, "Escherichia coli, 0205": {"tested_on": "Escherichia coli, 0205", "text": "as §1"}, "Escherichia coli, NIHJ": {"tested_on": "Escherichia coli, NIHJ", "text": "as §1"}, "[3]": {"tested_on": "Klebsiella pheumoniae, ATCC 10031", "text": "as §1"}, "Proteus mirabilis": {"tested_on": "Proteus mirabilis", "text": "as §1"}, "Proteus morganii 0239": {"tested_on": "Proteus morganii 0239", "text": "as §1"}, "Proteus rettgeri, ACR": {"tested_on": "Proteus rettgeri, ACR", "text": "as §1"}, "[4]": {"tested_on": "Salmonella enteritidis gaertner", "text": "as §1"}, "[5]": {"tested_on": "Staphylococcus aureus, ATCC 6538 P", "text": "as §1"}, "[6]": {"tested_on": "Staphylococcus aureus, ATCC MS 27", "text": "as §1"}, "[7]": {"settings": "Citrobacter freundii GN 346, read-out: MIC"}, "[8]": {"settings": "Enterobacter cloacae GN 336, read-out: MIC"}, "[9]": {"settings": "ATCC10031, Klebsiella pheumoniae, ATCC 10031, read-out: MIC"}, "[10]": {"settings": "Morganella morganii, Proteus morganii 0239, read-out: MIC"}, "[11]": {"settings": "Providencia rettgeri, Proteus rettgeri, ACR, read-out: MIC"}, "[12]": {"settings": "Salmonella enterica, Salmonella enteritidis gaertner, read-out: MIC"}, "[13]": {"settings": "ATCC6538, ATCC 6538 P, read-out: MIC"}, "[14]": {"settings": "ATCCMS27, ATCC MS 27, read-out: MIC"}}, "note": "Where two headings read alike, the source gives them in different places."}
{"smiles": "Cn1nnnc1SCC1=C(C(=O)O)N2C(=O)C(NC(=O)C[S+]([O-])c3cccs3)[C@H]2SC1", "note": "(stereo partly drawn) [A, 7-(2-Thienylsulfinylacetamido)-3-(1-methyl-1H-tetrazol-5-ylthiomethyl)-3-cephem-4-carboxylic acid]", "values": [{"measurement": "MIC", "setting": "[1]; [7]", "result": "> 100", "unit": "µg/mL"}, {"measurement": "MIC", "setting": "[2]; [8]", "result": 100, "unit": "µg/mL"}, {"measurement": "MIC", "setting": "Escherichia coli, 0205; read-out: MIC", "result": 25, "unit": "µg/mL"}, {"measurement": "MIC", "setting": "Escherichia coli, NIHJ; read-out: MIC", "result": 0.8, "unit": "µg/mL"}, {"measurement": "MIC", "setting": "[3]; [9]", "result": "≤ 0.2", "unit": "µg/mL"}, {"measurement": "MIC", "setting": "Proteus mirabilis; read-out: MIC", "result": 0.8, "unit": "µg/mL"}, {"measurement": "MIC", "setting": "Proteus morganii 0239; [10]", "result": "> 100", "unit": "µg/mL"}, {"measurement": "MIC", "setting": "Proteus rettgeri, ACR; [11]", "result": 25, "unit": "µg/mL"}, {"measurement": "MIC", "setting": "[4]; [12]", "result": "≤ 0.2", "unit": "µg/mL"}, {"measurement": "MIC", "setting": "[5]; [13]", "result": "≤ 0.2", "unit": "µg/mL"}, {"measurement": "MIC", "setting": "[6]; [14]", "result": 0.4, "unit": "µg/mL"}]}
{"smiles": "Cc1nnc(SCC2=C(C(=O)O)N3C(=O)[C@@H](NC(=O)Cn4cnnn4)[C@H]3SC2)s1", "note": "[Cefazolin, 7-(1H-Tetrazol-1-ylacetamido)-3-(5-methyl-1,3,4-thiadiazol-2-ylthiomethyl)-3-cephem-4-carboxylic acid]", "values": [{"measurement": "MIC", "setting": "[1]; [7]", "result": "> 100", "unit": "µg/mL"}, {"measurement": "MIC", "setting": "[2]; [8]", "result": "> 100", "unit": "µg/mL"}, {"measurement": "MIC", "setting": "Escherichia coli, 0205; read-out: MIC", "result": 12.5, "unit": "µg/mL"}, {"measurement": "MIC", "setting": "Escherichia coli, NIHJ; read-out: MIC", "result": 1.6, "unit": "µg/mL"}, {"measurement": "MIC", "setting": "[3]; [9]", "result": 1.6, "unit": "µg/mL"}, {"measurement": "MIC", "setting": "Proteus mirabilis; read-out: MIC", "result": 3.1, "unit": "µg/mL"}, {"measurement": "MIC", "setting": "Proteus morganii 0239; [10]", "result": "> 100", "unit": "µg/mL"}, {"measurement": "MIC", "setting": "Proteus rettgeri, ACR; [11]", "result": "> 100", "unit": "µg/mL"}, {"measurement": "MIC", "setting": "[4]; [12]", "result": 1.6, "unit": "µg/mL"}, {"measurement": "MIC", "setting": "[5]; [13]", "result": "≤ 0.2", "unit": "µg/mL"}, {"measurement": "MIC", "setting": "[6]; [14]", "result": 0.8, "unit": "µg/mL"}]}
{"smiles": "CC(=O)OCC1=C(C(=O)O)N2C(=O)[C@@H](NC(=O)Cc3cccs3)[C@H]2SC1", "note": "[Cephalothin, 7-(2-Thienylacetamido)-3-acetoxymethyl-3-cephem-4-carboxylic acid]", "values": [{"measurement": "MIC", "setting": "[1]; Citrobacter freundii", "result": "> 100", "unit": "µg/mL"}, {"measurement": "MIC", "setting": "[2]; Enterobacter cloacae", "result": "> 100", "unit": "µg/mL"}, {"measurement": "MIC", "setting": "Escherichia coli, 0205; read-out: MIC", "result": "> 100", "unit": "µg/mL"}, {"measurement": "MIC", "setting": "Escherichia coli, NIHJ; read-out: MIC", "result": 6.3, "unit": "µg/mL"}, {"measurement": "MIC", "setting": "[3]; Klebsiella, ATCC10031", "result": 0.8, "unit": "µg/mL"}, {"measurement": "MIC", "setting": "Proteus mirabilis", "result": 6.3, "unit": "µg/mL"}, {"measurement": "MIC", "setting": "Proteus morganii 0239; Morganella morganii, 0239", "result": "> 100", "unit": "µg/mL"}, {"measurement": "MIC", "setting": "Proteus rettgeri, ACR; Providencia rettgeri", "result": "> 100", "unit": "µg/mL"}, {"measurement": "MIC", "setting": "[4]; Salmonella enterica, ENTERITIDIS", "result": 1.6, "unit": "µg/mL"}, {"measurement": "MIC", "setting": "[5]; ATCC6538", "result": "≤ 0.2", "unit": "µg/mL"}, {"measurement": "MIC", "setting": "[6]; ATCCMS27", "result": 0.4, "unit": "µg/mL"}]}
{"smiles": "CO[C@@]1(NC(=O)C[S+]([O-])c2cccs2)C(=O)N2C(C(=O)O)=C(CSc3nnnn3C)CS[C@@H]21", "note": "(stereo partly drawn) [Example 21, 7β-(2-Thienylsulfinylacetamido)-7α-methoxy-3-(1-methyl-1H-tetrazol-5-ylthiomethyl)-3-cephem-4-carboxylic acid]", "values": [{"measurement": "MIC", "setting": "[1]; Citrobacter freundii", "result": 100, "unit": "µg/mL"}, {"measurement": "MIC", "setting": "[2]; Enterobacter cloacae", "result": 25, "unit": "µg/mL"}, {"measurement": "MIC", "setting": "Escherichia coli, 0205", "result": 3.1, "unit": "µg/mL"}, {"measurement": "MIC", "setting": "Escherichia coli, NIHJ", "result": 1.6, "unit": "µg/mL"}, {"measurement": "MIC", "setting": "[3]; Klebsiella pheumoniae, ATCC 10031", "result": "≤ 0.2", "unit": "µg/mL"}, {"measurement": "MIC", "setting": "Proteus mirabilis", "result": 0.8, "unit": "µg/mL"}, {"measurement": "MIC", "setting": "Proteus morganii 0239; Proteus morganii 0239", "result": 12.5, "unit": "µg/mL"}, {"measurement": "MIC", "setting": "Proteus rettgeri, ACR; Proteus rettgeri, ACR", "result": 6.3, "unit": "µg/mL"}, {"measurement": "MIC", "setting": "[4]; Salmonella enteritidis gaertner", "result": "≤ 0.2", "unit": "µg/mL"}, {"measurement": "MIC", "setting": "[5]; ATCC 6538 P", "result": 0.8, "unit": "µg/mL"}, {"measurement": "MIC", "setting": "[6]; ATCC MS 27", "result": 0.8, "unit": "µg/mL"}]}
{"smiles": "CO[C@@]1(NC(=O)C[S+]([O-])c2cccs2)C(=O)N2C(C(=O)[O-])=C(CSc3nnnn3C)CS[C@@H]21.[Na+]", "note": "(stereo partly drawn) [Example 23, sodium 7β-(2-thienylsulfinylacetamido)-7α-methoxy-3-(1-methyl-1H-tetrazol-5-ylthiomethyl)-3-cephem-4-carboxylate]", "values": [{"measurement": "MIC", "setting": "Escherichia coli, 0205; text of Example 23 (sodium salt)", "result": 3.1, "unit": "µg/mL"}]}
